Like-named read-outs stand apart in the source and are kept apart here.
Columns and labels:
[1] = pre-satiated rats, subcutaneous, all doses; cited from earlier work
[2] = tested on: diet-restricted BALB/c mice; settings: cited from earlier work
[3] = tested on: rat brain phospholipid membrane; assay: Fatty acid levels in rat brain phospholipid membrane; format: in vivo, Sprague-Dawley rat; settings: ANOVA main effect
Method: (§1) Total lipid was extracted from rat brains using the Folch extraction method, typical for lipid extraction (Folch et al, 1957). The total lipid extract from each rat brain was separated into neutral lipid and phospholipid fractions using a silica cartridge. The neutral lipid fraction was further separated into MAG and NAE fractions using High Performance Liquid Chromatography (HPLC). Fatty acid composition of the MAG, NAE, and phospholipid fractions was determined using Gas-Liquid Chromatography (GLC) after derivatizing to the corresponding fatty acid methyl esters. The fatty acid composition results correspond to total fatty acids in the membrane phospholipids in brain, and the MAG and NAE fatty acid results represent the concentration of these fatty acyl derivatives in rat brains.
(§2) Rat brain samples, stored frozen at −70° C., were separated into the two hemispheres; one half was used for determination of fatty acids in phospholipid, MAG, and NAE fractions and the other half was refrozen at −70° C. The half brain for analysis was transferred to a 50-mL glass centrifuge tube. Eight mL of methanol was added and the sample homogenized using a Polytron Dispersing and Mixing System (Kinematica, Switzerland) until well blended. The homogenizer probe was rinsed with 2 mL methanol added directly into the centrifuge tube. Twenty mL of chloroform was then added to the sample and mixed vigorously by shaking. The sample was left undisturbed at room temperature for at least 1 hour. Known amounts of internal standards, 9.91 μg of monoheptadecanoin and 3.32 μg of docosatrienoyl ethanolamine, were added. Six mL of 0.9% saline was then added and the sample mixed vigorously by shaking. The sample was then centrifuged for 7 minutes at 2000 rpm at 15° C. until the organic and aqueous layers were well separated using a Beckman Allegra™ 6R Centrifuge; Fullerton, Calif.). The chloroform (bottom) layer was aspirated into a clean 30-mL test tube. The sample was then evaporated to dryness under N2 and was either stored at −20° C. or reconstituted in 500 μL of chloroform. […]

[4] = Postprandial leptin and circulating insulin levels; format: in vivo, Sprague-Dawley rat
Method: The rat pups were sacrificed by decapitation on day 20 after the food intake phase and final body weights were taken. The brain was removed, weighed, and quickly frozen (within 5 minutes) in liquid nitrogen. Brain tissue was stored in a −70° C. freezer. Blood was collected from the neck stump, mixed with heparin, placed on ice, and centrifuged to ensure adequate phase separation to prepare plasma. Plasma was stored at −70° C.
Postprandial leptin levels in the rats fed the ARA-containing formulas during the formula feeding phase were about 20-30% lower than for rats fed the formulas without ARA. Postprandial leptin levels in the rats fed the DHA-containing formulas were about 5-15% higher than for rats fed the formulas without DHA. No differences in circulating insulin levels were found among the groups.

[5] = tested on: rat brain monoacylglycerols; assay: Monoacylglycerol (MAG) levels in rat brain; format: in vivo, Sprague-Dawley rat; settings: ANOVA main effect
Method: as §1
Rat brain samples, stored frozen at −70° C., were separated into the two hemispheres; one half was used for determination of fatty acids in phospholipid, MAG, and NAE fractions and the other half was refrozen at −70° C. The half brain for analysis was transferred to a 50-mL glass centrifuge tube. Eight mL of methanol was added and the sample homogenized using a Polytron Dispersing and Mixing System (Kinematica, Switzerland) until well blended. The homogenizer probe was rinsed with 2 mL methanol added directly into the centrifuge tube. […]

brain NAEs and MAGs = settings: piglets fed 0.2% AA (percent total fatty acids); cited from earlier work
[6] = tested on: rat brain N-acylethanolamines; assay: N-acylethanolamine (NAE) levels in rat brain; format: in vivo, Sprague-Dawley rat
Method: as §1, §2

[7] = Deaths during artificial rearing; format: in vivo, Sprague-Dawley rat; settings: combined rearings; vs 10 rats without DHA, p=0.054
Text: Male rat pups were removed from dams on postnatal day 6 and artificially reared on rat milk formulas to day 18. This procedure has been described in detail in the literature by Sonnenberg et al, 1982; Smart et al, 1983 and 1984; and Auestad et al, 1989. Similar procedures have been also been described by Ward et al, 1998, and Wainwright et al, 1999. On postnatal day 6, rat pups were randomly assigned to one of the four experimental rat milk formula groups (Table 3.2). The rat pups were lightly anesthetized, fitted with an intragastric cannula, and placed individually in pint-sized plastic containers free floating in a waterbath maintained at 36±2° C. The cannulae for individual rat pups were each connected to syringes filled with one of the four experimental rat milk formulas using polyethylene tubing. The rat pups were fed by intermittent, intragastric infusion, from day 6 to day 18. The formula was delivered to the rat pups for 20 or 30 min each hour, depending on the age of the rat, using a programmable pump housed in a bench-top refrigerator. The pump settings were modified daily to deliver specific quantities of rat milk formula to the rat pups to support normal growth.
Two groups of rats were artificially reared one in February 2002 and one in April 2002. The plan was to cannulate a total of 64 rats, thirty-two per rearing and 8 rats per experimental formula group. […]

[8] = tested on: hypothalamic 20:4n-6 NAE and 20:4n-6 MAG; settings: 125 or 250 μg intravenously, within 30 minutes, normal Sprague-Dawley rats; cited from earlier work

In the case of `CCCCC/C=C\C/C=C\C/C=C\C/C=C\CCCC(=O)NCCO` [20:4n-6 NAE, 5,8,11,14-eicosatetraenamide, (N-2-hydroxyethyl)-(all-Z)], the effect on eating [1] is listed as “induced significant overeating”, the “food consumption vs control group” value ([2]; 0.001 mg/kg intraperitoneally, 40% calorie restriction) is listed as “consumed significantly more food” and the “food consumption vs control group” value ([2]; 0.7 or 4 mg/kg intraperitoneally) is listed as “did not show any significant change”.

For `CCCCC/C=C\C/C=C\C/C=C\C/C=C\CCCC(=O)O` [AA, arachidonic acid], the “main effect on AA and C22:4n-6 levels in brain phospholipids” value [3] was “increasing”, the “main effect on brain phospholipid DHA” value [3] was “decreasing” and the “main effect on linoleic acid (C18:2n-6) and C20:3n-6 levels in brain phospholipids” value [3] was “decreasing”. For the same molecule, the “postprandial leptin levels lower than in rats fed formulas without ARA” value ([4]; ARA-containing formulas during formula feeding phase) was 20-30%, the “main effects on n-6 or n-3 MAG in brain” value [5] was “no significant main effects” and the “20:4n-6 NAE increase in brain” value (brain NAEs and MAGs) was 4 fold. The “main effect on 20:4n-6 NAE in brain” value ([6]; ANOVA main effect) was “increasing”, the “main effect on total n-6 NAE in brain” value ([6]; ANOVA main effect) was “increasing” and the “increase in 20:4n-6 NAE in brain” value ([6]; rats fed formulas with AA, p=0.008) was 40%.

For `CC/C=C\C/C=C\C/C=C\C/C=C\C/C=C\C/C=C\CCC(=O)O` [DHA, docosahexaenoic acid], the “postprandial leptin levels higher than in rats fed formulas without DHA” value ([4]; DHA-containing formulas) was 5-15% and the “rats that died when DHA was in the formula” value [7] was 3 rats.

In the case of “leptin: peptide hormone secreted from adipose cells”, the “decrease of hypothalamic levels of 20:4n-6 NAE and 20:4n-6 MAG vs untreated controls” value [8] is listed as 40-50%.
